The target in assay [1] is T1, G protein-coupled receptor 88 (Homo sapiens, UniProt Q9GZN0).
Description: Displacement of [3H]RTI-33 from GPR88 (unknown origin) by competition binding assay
For assay [2], the target named is T1, G protein-coupled receptor 88. The source holds these as a separate data set.
Description: Agonist activity at GPR88 (unknown origin) transfected in HEK293 cells assessed as cAMP level by GloSensor cAMP assay

T1 sequence (Q9GZN0 whole entry): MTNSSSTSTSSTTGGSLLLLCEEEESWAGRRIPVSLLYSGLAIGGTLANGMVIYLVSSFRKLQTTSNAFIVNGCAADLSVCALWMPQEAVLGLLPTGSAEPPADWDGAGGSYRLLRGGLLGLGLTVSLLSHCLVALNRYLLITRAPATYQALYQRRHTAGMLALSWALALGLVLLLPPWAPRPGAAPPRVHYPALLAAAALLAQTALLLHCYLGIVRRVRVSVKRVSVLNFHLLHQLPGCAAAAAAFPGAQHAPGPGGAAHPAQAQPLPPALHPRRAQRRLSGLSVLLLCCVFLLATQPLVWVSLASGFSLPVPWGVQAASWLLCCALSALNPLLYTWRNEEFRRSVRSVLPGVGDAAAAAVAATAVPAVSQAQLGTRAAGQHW

As to `CCCC(C)COc1ccc([C@H](CN)NC(=O)[C@@H](C)c2ccccc2)cc1` (some centres not stated), the Ki (in general, the dissociation constant of the complex between target and ligand, obtained from inhibition or displacement) in assay [1] amounted to 219 nM. Besides, in assay [2], a half-maximal response (EC50) required 304 nM.

The record behind these values is ChEMBL document CHEMBL5236657, “Synthesis and pharmacological validation of a novel radioligand for the orphan GPR88 receptor” (Bioorg Med Chem Lett, 2023).
